Entries after “also recorded” stand apart in the source; their conditions may differ.

The test system of one data set is primary cortical neurons. As to the kind of experiment: PSD-95 density in primary cortical neuron culture. It is filed as cell-based, rat. As for the experimental part:
Methods: 1. Primary cultures of neurons were prepared as follows. Newborn rats were sacrificed on postnatal day 1. Cerebral cortex tissue was then dissected and dissociated individually from each pup with the Papain Dissociation System (PDS; Worthington Biochemical Corporation) according to the manufacturer's instructions. 2. Cells were fixed with ice cold methanol, blocked with 2% bovine serum albumin (BSA) and 5% normal goat serum in Tris buffered saline containing tween 20 (TBS-T; 20 mM Tris pH 7.5, 136.8 mM NaCl, and 0.05% v/v Tween 20), and incubated with primary antibody followed by the appropriate secondary antibody. 3. Primary antibodies that were used include: monoclonal anti PSD-95 (ab-2723, Abcam), monoclonal anti Tyr-α-tubulin antibody (YL1/2) (VMA1864, Abcys, Paris, France), polyclonal anti Glu-α-tubulin antibody (L4) (AbC0101, Abcys, Paris, France), DyLight 488-labeled secondary goat anti-mouse IgG, DyLight 633-labeled secondary goat anti-rabbit IgG (KPL, Gaithersburg, Md., USA), Cy3-conjugated secondary goat anti-Rat IgG, (Jackson ImmunoResearch). 4. Images were collected with a Leica SP5 confocal laser scanning microscope (Mannheim, Germany) with 63× oil immersion optics, laser lines at 488, 561, 633 nm. Identical confocal laser scanning microscopy (CLSM) parameters (e.g., scanning line, laser light, gain, and offset etc.) were used for control and NAP treated cells.
For instance, a PSD-95 expression assay using primary cortical neuron cultures established from suitable animals may be performed to confirm a compound's activity in promoting cell plasticity. More specifically, primary cultures of neurons are prepared by first taking cerebral cortex tissue from newborn rats on postnatal day 1. The cerebral cortex tissue is then dissected and dissociated individually from each animal. Cells are fixed with ice cold methanol, blocked (e.g., with bovine serum albumin (BSA) and normal goat serum), and incubated with primary antibody (e.g., monoclonal antibody against PSD-95), optionally followed by the appropriate secondary antibody for imaging purposes. Images of primary neuronal cultures are taken and compared between cultures with or without being exposed to a test compound. An increased PSD-95 expression is indicative of the test compound being capable of promoting or protecting cell plasticity, especially neuronal plasticity.
Cerebral cortex tissue from newborn rats was dissected and dissociated individually from each pup with the Papain Dissociation System (PDS), (Worthington Biochemical Corporation) according to the manufacturer's instructions. Cortical neurons were maintained in Neurobasal medium (NB), (Gibco) supplemented with NeuroCult B27-SM1 ([…]), 1% Glutamax (Gibco), and grown on poly-D-lysine-coated cell culture glass cover slips.
Images were collected with a Leica SP5 confocal laser scanning microscope (Mannheim, Germany) with 63× oil immersion optics, laser lines at 488, 561, 633 nm or with LSM 510 META (Zeiss, Jena, Germany) confocal laser scanning microscope with 63× oil immersion optics, laser lines at 488, 568, 633 nm. When comparing fluorescence intensities, identical CLSM parameters (e.g., scanning line, laser light, gain, and offset etc.) were used. All of the fluorescent signals acquired were above the autofluorescent background as measured from a control slide stained with secondary antibody without a primary antibody. To compare the relative levels of protein expression, the average integrated density (AID) image analysis procedure was used for cell immunostains. In brief, integrated density is defined by the sum of the values of the pixels in the selected region of interest (ROI). This is equivalent to the product of Area and Mean Gray Value. AID for the positive stained area was determined by measuring the fluorescent intensity of the ROI, which is above the positive cut-off intensity. […]

A further data set concerns rat brain extracts. The data set can be described thus: NAP / D-SAL affinity chromatography with rat brain extracts, mass spectrometry. It is filed as binding. As to conditions: repeated twice. As to the method:
The affinity chromatography column included SulfoLink® Immobilization Kit for Peptides (44999, Thermo Scientific, Rockford, Ill., USA). Binding of […] was performed according to the manufacturers' instruction. Recombinant protein was loaded (2 mg/mL) on the columns (2 mL) and incubated overnight at 4° C.; the columns were then washed with phosphate-buffered saline until all unbound protein was eluted [as confirmed by protein assay (Bradford; Bio-Rad Laboratories, Mannheim, Germany)]. NAP-binding proteins were eluted in IgG Elution buffer (pH 2.8) (Thermo scientific). […] Sodium dodecyl sulfate-polyacrylamide gel electrophoresis (SDS-PAGE) was then performed followed by western blot analysis in order to detect the protein (R. Zamostiano et al., J Biol Chem 276, 708 (Jan. 5, 2001)).
Affinity chromatography was carried out as above with rat brain extracts as before (34, 36). However, several additional experiments were undertaken and mass spectrometry was employed to identify additional potential NAP-interacting proteins that elute from the affinity column.

For data set [1], the system named is PC12 cells. The data set can be described thus: PC12 cell survival assay, zinc toxicity, MTS (Example 1). The settings on record: for protection against zinc-induced PC12 cell death (MTS) with EB3 silenced: RNA silencing of EB3. As for the experimental part:
PC12 cells (Pheochromocytoma cells) (ATCC, Bethesda, Md., USA) were seeded at 3×10^4 cells/cm^2 on poly-L-Lysine coated plastic tissue culture dishes (Corning, Lowell, Mass., USA) to form an adherent monolayer. Cells were maintained in Dulbecco's modified Eagle's medium (DMEM) supplemented with 10% horse serum (HS), 5% fetal calf serum (FCS), 2 mM glutamine, 100 U/ml penicillin and […] streptomycin (Biological Industries, Beit Haemek, Israel). PC12 differentiation was induced by nerve growth factor (NGF, Sigma) at concentrations of 50 ng/ml by replacing half of the medium every other day until the cells acquired a differentiated morphology. Differentiated cells were defined as bearing two or more neurites with lengths equal to or more than twice the diameter of the cell body (P. Lamoureux et al., The Journal of cell biology 110, 71 (January, 1990)). The cells were incubated in 5% CO2 in a humidified incubator at 37° C. The cells were sub-cultured every 5 days at a 4:1 split ratio by pipetting. The medium was changed every 2 or 3 days after adhesion.
Transfections were performed using Lipofectamine RNAiMAX (Invitrogen). Transfection was carried out according to manufacturer's protocol. For rat MAPRE3 knockdown, PC12 cells or neurons were plated in growth medium without antibiotics at concentration of 10^4 cells/0.32 cm^2 such that they will be 30-50% confluent at the time of transfection. To obtain the highest transfection efficiency and low non-specific effects, siRNA transfection was performed in the following optimized conditions: 50 nM for neurons and 25 nM PC12 of each siRNA construct with 0.2 μl Lipofectamine RNAiMAX (Invitrogen) was added per well of the 96-well plate and scaled up for different 24 or 6-well plates, according to the manufacturer's instructions. The medium was changed one day after transfection. 48 and 72 hours later, cells were harvested to assay for gene knockdown at the RNA and protein levels.
The cells were incubated for 4 hrs at 37° C. 5% CO2. Survival was measured using the MTS assay.
Metabolic activity of cells was measured by the CellTiter 96® Aqueous Non-Radioactive Cell Proliferation kit in accordance with the manufacturer's instructions (Promega). The assay uses a colorimetric method for determining the number of viable cells employing a tetrazolium compound [3-(4,5-dimethylthiazol-2-yl)-5-(3-carboxymethoxyphenyl)-2-(4-sulfophenyl)-2H-tetrazolium, MTS] and an electron-coupling reagent, phenazine methosulfate (PMS). MTS is bio-reduced by cells into a formazan product that is detected at 490 nm. The conversion of MTS into the formazan form is accomplished by dehydrogenase enzymes found in metabolically active cells. Thus, the quantity of formazan product as measured by the amount of 490 nm absorbance is directly proportional to the number of living cells in culture (A. H. Cory, T. C. Owen, J. A. Barltrop, J. G. Cory, Cancer Commun 3, 207 (July, 1991)).

In data set [2] the test system is PC12 cells. As to conditions: ZnCl2 400 μM, 4 h. As to the method: FIG. 15: Rat pheochromocytoma cells (PC12) were seeded on Poly-D-Lysine coated 96-well tissue culture dishes in high concentration (30,000 cells/well). On the day of the experiment the cells were treated with ZnCl2 (400 μM) either alone or in combination with different concentration of SKIP for 4 h. After 4 h the cell viability was analyzed by MTS assay. […] All values are from one experiment performed in hexplicate.
Rat pheochromocytoma cell (PC12, ATCC, Bethesda, Md., USA) were grown in 10-cm tissue culture dishes (Corning). The base medium for this cell line was RPMI-1640 Medium (Invitrogen) supplemented with 10% heat-inactivated horse serum, 5% fetal bovine serum and solution containing 100 U/ml penicillin together with […] streptomycin (Biological Industries, Beit Haemek, Israel). The cells were incubated in 95% air; 5% CO2 in a humidified incubator at 37° C. The medium was changed every 2 to 3 days. The cells were subcultured when cell density reached 4×10^6 cells/ml. The cells were split in a ratio of 1:4.
On the day before the experiment cells were to be harvested, re-suspended and seeded on tissue culture dishes. For cell viability measurements, cells were seeded on Poly-D-Lysine coated 96-well tissue culture dishes (Sigma-Aldrich) at a concentration of 3×10^4 cells/well.
The cell viability is measured by colorimetric method that determines the number of viable cells in culture. This method is based on the bio-reduction of the tetrazolium compound [3-(4,5-dimethylthiazol-2-yl)-5-(3-carboxymethoxyphenyl)-2-(4-sulfophenyl)-2H-tetrazolium; MTS] by living cells into a colored formazan product. This reaction is occurring in the presence of an electron coupling reagent (phenazine ethosulfate; PES). The amount of formazan product is measured by ELISA plate reader at 490 nm and is directly proportional to the number of living cells in culture (CellTiter 96® AQueous One Solution Cell Proliferation Assay; Promega, Madison, Wis., USA).

Data set [3] concerns PC12 cells. The settings on record: previously published data, read-out: EC50 for zinc cell killing effect; cited from earlier work.
Data set [4] concerns the target T1, Full-length human EB3 recombinant protein (human, UniProt Q9UPY8 1-281).
T1 construct: mature; Full-length protein; also called recombinant EB3; MAPRE3
The data set can be described thus: competition with soluble peptide on the NAP affinity column; western blot. As for the experimental part: Column load, flow through, wash and elution fractions were further analyzed by polyacrylamide gel electrophoresis, followed by western analysis with EB3 antibodies. […] Column chromatography, elution and western blots were performed as above. The extract fractions (flow, wash and elution) were separated by electrophoresis followed by protein detection (FIG. 6). […] In order to verify that EB3 was indeed eluted from the column, beads were taken from the column resin mixed with sample buffer and western blot analysis was performed (FIG. 6—"[…]" most right lane).
(Immunoblotting shows a protein as a band on a membrane.)

T1 sequence (Q9UPY8 whole entry): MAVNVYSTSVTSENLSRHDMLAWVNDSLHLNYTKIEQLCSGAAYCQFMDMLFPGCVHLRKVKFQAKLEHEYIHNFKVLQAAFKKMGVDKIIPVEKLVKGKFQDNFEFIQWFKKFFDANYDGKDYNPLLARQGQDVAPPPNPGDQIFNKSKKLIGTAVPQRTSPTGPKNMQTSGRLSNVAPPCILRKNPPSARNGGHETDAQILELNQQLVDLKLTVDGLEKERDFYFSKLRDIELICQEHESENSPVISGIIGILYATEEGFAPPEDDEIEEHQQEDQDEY

Take `CC[C@H](C)[C@H](NC(=O)[C@H](CO)NC(=O)[C@@H](NC(=O)[C@@H]1CCCN1C(=O)[C@H](C)NC(=O)[C@@H](N)CC(N)=O)C(C)C)C(=O)N1CCC[C@H]1C(=O)N[C@@H](CCC(N)=O)C(=O)O` [NAP]: in the data set on primary cortical neurons (10^−12M NAP, 48 hours siRNA against EB3), the “effect on PSD-95 expression with EB3 silencing” value is given as “abolished NAP activity; also recorded: completely inhibited”. The “increase in PSD-95 expression” value in the data set on primary cortical neurons (10^−12M, 2 hrs, 13 DIV cortical neurons (FIG. 10d)) was 75%. Further, in the data set with primary cortical neurons (10^−12M, DIV 13, 2 hours), the “PSD-95 expression in dendrites (FIG. 11)” value was “enhances PSD-95 expression”. Moreover, in the data set with primary cortical neurons (NAP 10^−18M-10^−9M, DIV 13, 2 hrs), the “density of PSD-95 puncta vs vehicle controls” value is given as “significantly increased”. The “peak effect on density of PSD-95 over control” value in the data set with primary cortical neurons (NAP concentration of 10-12M, 2 hours) was 50%. Besides, in the data set with primary cortical neurons (neurons treated for 2 hrs), the “derivative peptides effect on PSD-95 density vs vehicle controls (FIG. 10c)” value is “significantly increased”. Moreover, the “interaction with drebrin (affinity column eluate, mass spectrometry)” value in the data set on rat brain extracts is on record as “specific interaction”. Besides, the “protection against cell death induced by zinc toxicity (MTS survival)” value in the data set with PC12 cells [1] (400 μM zinc, 4 hrs, peptide 10^−9M) is listed as “significant protection effect; also recorded: significantly increased survival”. For the same molecule, the “protection against cell death induced by zinc toxicity (MTS)” value with PC12 cells [1] (400 μM zinc, 4 hrs, peptide 10^−15M) is listed as “significant protection effect”. The “protection against zinc-induced PC12 cell death (MTS) with EB3 silenced” value is given as “not in the presence of EB3 silencing” in the data set on PC12 cells [1] (500 microM zinc, NAP 10^−15M) and “does not protect” in the data set with PC12 cells [1] (500 microM zinc, NAP 10^−15M, listed as NAPVSIPQ). For the same molecule, in the data set with PC12 cells [1] (500 microM zinc, NAP 10^−15M, control situations (non-specific siRNA, no treatment)), the “protection against zinc-induced PC12 cell death (MTS)” value was “protected against by NAP treatment; also recorded: protects in the control situations”.

For orientation: EC50 means the concentration that produces a half-maximal response. In the case of `[Cl-].[Cl-].[Zn+2]` [zinc, ZnCl2], in the data set on PC12 cells [2], the “cell death from zinc treatment” value is given as roughly 20%. Also, the “zinc concentration at which significant cell death was observed” value with PC12 cells [1] (PC12 cells, 4 hrs, data not shown) was greater than 200 µM. Besides, the “reduction of cell viability by zinc” value with PC12 cells [1] (vs control without zinc) was roughly 25%. In addition, in the data set with PC12 cells [3], the EC50 was 308 ± 38 µM.

With NAPVSKIPQ, the binding result in data set [4] is “binds”.
